Values quoted from earlier work as cited in patent US20170173276A1, “SYSTEM AND METHOD FOR DELIVERING AN ANTI-ADHESIVE SUBSTANCE TO A BODY CAVITY” (Northgate Technologies Inc., priority 2003, published 2017).

Legend:
[1] = administration in liquid form; shown in some studies
[2] = general/typical value

half life [2] [h]	Molecule	post-operative shoulder pain [1]
–	CCCCN1CCCCC1C(=O)Nc1c(C)cccc1C (stereo not drawn) [Bupivacaine]	reducing post-operative shoulder pain
4 to 5	low molecular weight heparin	–
1 to 2	unfractionated heparin	–
